Test results taken from PMC10674987, “Sweet Cherry Extract as Permeation Enhancer of Tyrosine Kinase Inhibitors: A Promising Prospective for Future Oral Anticancer Therapies” (Pharmaceuticals, 2023).
Read-outs that look alike come from different tables or passages of the source.

Legend:
[1] = human liver microsomes; previously published; cited from earlier work
[2] = previously published; cited from earlier work
[3] = Bidirectional permeability in Caco-2 cells in absence and presence of SCE; format: in vitro ADME, human; settings: human, 10 µM compound; for Papp A→B at 2 h, 10 µM: apical to basolateral; for Papp B→A at 2 h, 10 µM: basolateral to apical; for efflux ratio at 2 h, 10 µM: read-out: Efflux ratio (ER) (Papp B-A/Papp A-B)
Protocol: (§1) Caco-2 cells were seeded at a density of 2 × 10^4 on Transwell supports (0.4 µm pore polycarbonate membrane, 6.5 mm) and incubated overnight in a controlled atmosphere of 37 °C and 5% of CO2. The following day, the medium was changed to remove floating cells and fresh pre-warmed DMEM 20% was added (300 µL in the apical compartment and 1200 µL in the basal one). Cells were cultured for approximately 18–21 days in order to ensure that the cellular monolayers differentiated and many transport proteins and brush border hydrolases were expressed. Media were changed every 2–3 days.
(§2) For permeability studies, stock solutions of compounds were prepared by solubilizing 1.0 mg of accurately weighed powder with dimethyl sulfoxide (DMSO) and conserved at −20 °C. Immediately prior to the experiments, working solutions (WS) were prepared by diluting the stock solutions with pre-warmed HBSS to the final concentration of 10 µM. The final concentration of DMSO used never exceeded 0.1% v/v. The assays were performed in both the absorptive (from apical-to-basolateral compartment (A-B)) and the secretory direction (from basolateral-to-apical compartment (B-A)), both in the absence (Free) and presence of sweet cherry extract (+SCE [1 mg/mL]) diluted in HBSS. The final volumes used for the experiment were 300 µL in the apical compartment and 1200 µL in the basolateral one. Plates were incubated at 37 °C and maintained under gentle shaking (500 rpm) to reduce the effect of the unstirred water layer. At selected time points (T0–0.25–0.5–1–2 h-TEND for the A-B studies; T0–2 h–TEND for the B-A studies), samples (200 µL) were collected from the receiving compartments (from the basolateral compartment for the A-B assay; from the apical one for the B-A study) and replaced with the same volume of HBSS. The HPLC-UV/MS method was developed to quantify the amount of drug transferred across the cellular monolayer, and permeability (Papp, 10^−6 cm/s) and efflux ratio (ER) were calculated according to the following equations:Papp = (dQ/dt) × 1/(A × C0)(5) where dQ/dt is the steady-state flux (µmol s^−1), A is the area of the filter (cm^2), and C0 is the initial concentration in the donor compartment (µM). ER = (Papp B-A)/(Papp A-B)(6)
(§3) Chromatographic analyses were carried out using an Agilent 1260 Infinity HPLC-DAD system connected to an Agilent MSD 6130 system (Agilent Technologies, Palo Alto, CA, USA). At room temperature, a Kinetex C18-100 Å column (150 mm 4.6 mm, purchased from Phenomenex, Torrance, CA, USA) with a 5 µm particle size and gradient elution with a binary solution (eluent A: H2O, eluent B: ACN, both acidified with 0.1% v/v formic acid) was for the chromatographic separation. Analyses started with 5% B (from t = 0 to t = 1 min), then increased to 95% (from t = 1 to t = 10 min), then maintained at 95% (from t = 10 to t = 15 min), and finally returned to […] in 1.0 min. The volume injected was 10 µL, and the flow rate 600 µL/min. UV detection was monitored at 254 nm, and spectra were collected in both the positive and negative modes within the scan range of m/z 100–1500.

Caco-2 monolayer = experiment: as above; format: in vitro ADME, human; settings: for Change of Papp A-B in presence of SCE vs Free / Change of Papp B-A in presence of SCE vs Free / Change of efflux ratio in presence of SCE vs Free: +SCE 1 mg/mL vs Free
Protocol: as §1, §2, §3

[4] = previously published; cited from earlier work; remark: listed apart in the source
Caco-2 cells = experiment: Cell viability assay (MTT) on Caco-2 cells; format: cell-based, human; settings: 2 h
Protocol: (§4) Cells were sub-cultured using a 1× trypsin/EDTA solution and then passed every 3–4 days at appropriate ratios (typically 1:3, 1:6, 1:12). […] After 2 h of treatment, solutions were aspirated from the wells, and the cells were washed with pre-warmed PBS. […] Furthermore, it was mandatory to identify the most suitable drug concentration that would avoid cytotoxic effects on Caco-2 cells (a condition that may bias the permeability study) and that would allow the optimal chromatographic response when analyzing the samples obtained. Therefore, cells were exposed to increasing concentrations of drugs (1–10–100 µM) for 2 h. […] In order to fully reproduce the conditions of the permeability studies and assess the possible induction of irreversible cytotoxic effects by SCE or drugs, cell viability was also checked after a further 24 h of incubation in free medium (2 h + 24 h). Cell viability was assessed as above described.

[5] = known from the literature; cited from earlier work
[6] = known from literature; cited from earlier work
[7] = parameters: method as in earlier work; settings: in humans; EMA reports; cited from earlier work
[8] = Cell viability assay (MTT) on Caco-2 cells; format: cell-based, human; settings: human, Caco-2 cells, 2 h + 24 h fresh medium
Protocol: as §4

| Compound | Metabolic Stability [1] [%] | PAMPA Papp [2] | Papp A→B at 2 h, 10 µM ([3]; Caco-2, +SCE [1 mg/mL]) [nm/s] | Papp B→A at 2 h, 10 µM ([3]; Caco-2, +SCE [1 mg/mL]) [nm/s] | efflux ratio at 2 h, 10 µM ([3]; Caco-2, +SCE [1 mg/mL]) | Papp A→B at 2 h, 10 µM ([3]; Caco-2, Free) [nm/s] | Papp B→A at 2 h, 10 µM ([3]; Caco-2, Free) [nm/s] | efflux ratio at 2 h, 10 µM ([3]; Caco-2, Free) | Change of Papp A-B in presence of SCE vs Free (Caco-2 monolayer) | Change of Papp B-A in presence of SCE vs Free (Caco-2 monolayer) | Change of efflux ratio in presence of SCE vs Free (Caco-2 monolayer) | PAMPA membrane retention (MR %) [2] [%] | also measured |
| --- | --- | --- | --- | --- | --- | --- | --- | --- | --- | --- | --- | --- | --- |
| Oc1ccc(Cl)c(Nc2ncnc3c2cnn3CC(Cl)c2ccccc2)c1 (stereo not drawn) [Cpd 3] | 86.3 | 4.3 (-) 10^−6 cm/s | 163 ± 5.37 | 325 ± 7.84 | 2 ± 0.114 | 16.8 ± 0.61 | 47.4 ± 0.97 | ~3 | ~10 fold | more interesting implementation | almost halved |  |  |
| CC(Cn1ncc2c(Nc3cccc(O)c3)nc(NCCO)nc21)c1ccccc1 (stereo not drawn) [Cpd 4] | 99.4 | lower than 1 10^−6 cm/s | 169 ± 7.43 | 533 ± 18 | 3.16 ± 0.245 | 51.1 ± 3.85 | 345 ± 8.17 | 6.77 ± 0.351 | about three and four times | more interesting implementation | almost halved | 1 |  |
| CSc1nc(NCCc2ccccc2)c2cnn(CC(Cl)c3ccccc3)c2n1 (stereo not drawn) [Cpd 2] | 96.6 | 3.2 10^−6 cm/s | 2.24 ± 0.09 | 23 ± 2.79 | 10.2 ± 0.837 |  | 104 ± 3.63 | 97.3 ± 4.49 | almost doubled | significant reduction | nine-fold reduction | 42.7 |  |
| Oc1ccc(Cl)c(Nc2nc(SCCN3CCOCC3)nc3c2cnn3/C=C/c2ccccc2)c1 [Cpd 7] | 97.6 | 5.5 10^−6 cm/s | 11.7 ± 1.2 | 4.57 ± 1.08 | 0.387 ± 0.052 | < 5 | 2.29 ± 0.23 | 0.517 ± 0.014 | almost doubled | only a slight increase | only a slight decrease | 5.4 | melting point: 189 to 191 °C; Efflux ratio (ER) (Papp B-A/Papp A-B) (Caco-2 monolayer; Free, 10 µM compound): 0.481 ± 0.049; Water Solubility [4]: 0.036 µg/mL |
| CC(Cn1ncc2c(Nc3cc(O)ccc3Cl)nc(SCCN3CCOCC3)nc21)c1ccccc1 (stereo not drawn) [Cpd 5] | 97.9 | over 10 10^−6 cm/s | 15.4 ± 0.95 | 59.9 ± 2.86 | 3.88 ± 0.054 | 12.5 ± 1.22 | 80.4 ± 1.83 | 6.46 ± 0.486 | only a slight improvement | significant reduction | almost halved | 6.6 | Caco-2 Papp A-B lower than PAMPA Papp (Caco-2 monolayer; Free): ~10 fold |
| CC(C)NCC(O)COc1cccc2ccccc12 (stereo not drawn) [Propranolol, propranolol, reference compound] |  |  | 931 ± 38.4 | 372 ± 47.3 | 0.399 ± 0.034 | 413 ± 42.8 | 336 ± 9.67 |  | doubled | did not show relevant changes | almost halved |  | Cell viability (Caco-2 cells; 1 µM, vs untreated control): no significant signs of toxicity; Cell viability (Caco-2 cells; 100 µM): high percentages of viable cells; Oral bioavailability / oral absorption (of an oral dose) [5]: around 90%; Papp [6]: higher than 10 × 10^−6 cm/s |
| Fc1ccc(C(Cl)Cn2ncc3c(NCc4ccccc4)ncnc32)cc1 (stereo not drawn) [Cpd 1] | 84.2 |  | 161.67 ± 0.14 | 268 ± 36.8 | 1.66 ± 0.226 | 49.43 ± 0.44 | 151 ± 15.7 | ~3 | about three and four times | more interesting implementation | almost halved | 9.2 | melting point: 143 to 144 °C |
| CC(Cn1ncc2c(Nc3cc(O)ccc3Cl)nc(NCCO)nc21)c1ccccc1 (stereo not drawn) [Cpd 6] | 97.9 | lower than 1 10^−6 cm/s | 149 ± 18.6 | 514.5 ± 1.18 | 3.48 ± 0.445 | 33.2 ± 0.41 | 190 ± 21.5 | 5.71 ± 0.578 | about three and four times | more interesting implementation | almost halved | 4.0 |  |
| Cc1nc(Nc2ncc(C(=O)Nc3c(C)cccc3Cl)s2)cc(N2CCN(CCO)CC2)n1 [Dasatinib, dasatinib, reference compound] |  |  | 24.1 ± 1.2 | 311 ± 3.42 | 12.9 ± 0.786 | 20.2 ± 1.03 | 369 ± 29.5 | 18.2 ± 0.529 | slight increase | did not show relevant changes | reduced |  | Bioavailability [7]: 15.2%; viability at 10 µM ([8]; 10 µM): 90 to 100%; viability at 100 µM ([8]; 100 µM): 70 to 80%; Cell viability (Caco-2 cells; 1 µM, vs untreated control): no significant signs of toxicity |
